Test results from patent US8420888B2, “Chloroplast transit peptides for efficient targeting of DMO and uses thereof” (Monsanto Technology LLC, priority 2007, dated 2013).

Test system: soybean plants
Assay: Pre- and post-emergence dicamba tolerance of transgenic soybean
Format: in vivo
Conditions: wild type soybean; dicamba at post-V3 stage at 1 lb/a rate
Text: Several DMO expression units were constructed by operably linking one of each various promoters, CTPs, DMO variants, and 3′UTRs to obtain efficient DMO expression units for product development.

SMILES: COc1c(Cl)ccc(Cl)c1C(=O)O [dicamba, 3,6-dichloro-o-anisic acid]
- injury rate: 60%
